Source: patent publication US20100298251A1, “WOUND-HEALING AGENT CONTAINING MOMORDICAE SEMEN EXTRACT” (priority 2007, published 2010)
Values joined by “and” are separate entries in the source; they are usually repeats but may differ in a detail not shown here. Equal values may be shown once.

Test system: wounded mouse skin
Assay: Wound-healing effect in wounded skin mouse model (topical, once daily for 10 days)
Assay type: in vivo
[1] = group mean (X, 5 mice), topical x10, dose/mouse: extract 50 μg, fraction 3 10 μg, saponin I 5 μg, CGS-21680 10 μg
[2] = group mean (X, 5 mice), topical x10, dose/mouse: extract 50 μg, fraction 3 10 μg, saponin I 5 μg, CGS-21680 10 μg, * P<0.05 vs vehicle
[3] = individual mouse (N 1-5), same doses as group means

SMILES | Wound Closure Rate (%) Day 1 [1] | Wound Closure Rate (%) Day 3 [2] | Wound Closure Rate (%) Day 5 [2] | Wound Closure Rate (%) Day 7 [2] | Wound Closure Rate (%) Day 9 [2] | Wound Closure Rate (%) Day 11 [2] | CT50 (time required for wound closure) [2] | Wound Closure Rate (%) Day 1 [3] | Wound Closure Rate (%) Day 3 [3] | Wound Closure Rate (%) Day 5 [3] | Wound Closure Rate (%) Day 7 [3] | Wound Closure Rate (%) Day 9 [3] | Wound Closure Rate (%) Day 11 [3] | CT50 (time required for wound closure) [3] | wound-healing effect (overall statement on Table 2 and FIG. 1)
CCNC(=O)[C@H]1O[C@@H](n2cnc3c(N)nc(NCCc4ccc(CCC(=O)O)cc4)nc32)[C@H](O)[C@@H]1O [CGS-21680, reference compound] | 0.0% | *45.1% | *58.5% | *68.5% | *79.0% | *83.1% | *5.2 Days | 0.0% | 46.7% (2×) and 36.0% and 54.4% and 41.6% | 62.5% and 59.3% and 55.5% and 59.6% and 55.8% | 71.2% and 66.5% and 62.7% and 71.8% and 70.3% | 79.9% and 74.7% and 79.7% and 81.6% and 79.2% | 85.6% and 84.6% and 78.3% and 82.9% and 84.3% | 5.0 days and 5.6 days and 5.2 days and 5.1 days and 5.3 days | 
CC1OC(OC2C(O)C(C(=O)O)OC(OC3CCC4(C)C(CCC5(C)C4CC=C4C6CC(C)(C)CCC6(C(=O)OC6OC(C)C(O)C(O)C6OC6OC(C)C(OC7OCC(O)C(O)C7O)C(OC7OC(CO)C(O)C(OC8OCC(O)C(O)C8O)C7O)C6O)CCC45C)C3(C)C=O)C2OC2OC(CO)C(O)C(O)C2O)C(O)C(O)C1O [Momordica Saponin I, 3-O-beta-D-Galactopyranosyl (1->2)-[alpha-L-rhamnopyranosyl (1->3)]-beta-D-glucuronopyranosido-28-O-beta-D-xylopyranosyl (1->3)-beta-D-glucopyranosyl (1->3)-[beta-D-xylopyranosyl (1->4)]-alpha-L-rhamnopyranosyl (1->2)-beta-D-fucopyranosyl gypsogenin] | 0.0% | *40.1% | *53.0% | *66.1% | *77.3% | *83.4% | *5.6 Days | 0.0% | 32.9% and 45.4% (2×) and 31.2% and 45.6% | 54.4% and 54.8% and 48.8% and 51.4% and 55.5% | 69.9% and 71.5% and 58.8% and 62.9% and 67.5% | 80.8% and 80.4% and 69.4% and 75.6% and 80.5% | 85.0% and 88.3% and 78.1% and 84.6% and 81.1% | 5.5 days and 5.2 days and 6.3 days and 5.6 days and 5.3 days | superior wound-healing effects
